# Laboratory results taken from ChEMBL document CHEMBL1128838, “Synthesis of antiparasitic licorice chalcones” (1995).
# Experiments:
# [1] = test system: Leishmania donovani; experiment: Inhibition of [3H]thymidine uptake in amastigotes of Leishmania donovani in infected human peripheral blood monocyte derived macrophages at a dose of 0.5 ug/ml; type: functional
# [2] = test system: Leishmania donovani; experiment: Inhibition of [3H]thymidine uptake in amastigotes of Leishmania donovani in infected human peripheral blood monocyte derived macrophages at a dose of 1 ug/ml; type: functional
# [3] = test system: Leishmania donovani; experiment: Inhibition of [3H]-thymidine uptake in amastigotes of Leishmania donovani in infected human peripheral blood monocyte derived macrophages at a dose of 10 ug/ml; type: functional
# [4] = Evaluated for the PHA (phytohemagglutininin A) induced proliferation of human peripheral lymphocytes at a dose of 10 ug/ml; type: functional
# [5] = Evaluated for the PHA (phytohemagglutininin A) induced proliferation of human peripheral lymphocytes at a dose of 25 ug/ml; type: functional
# [6] = test system: Leishmania major; experiment: Antiparasitic activity was estimated by ability to inhibit the in vitro growth of Leishmania major measured by the decreased uptake of [3H]thymidine at 10 ug/mL; type: functional
# [7] = test system: Leishmania major; experiment: Antiparasitic activity was estimated by ability to inhibit the in vitro growth of Leishmania major measured by the decreased uptake of [3H]thymidine at 25 ug/mL; type: functional
# [8] = test system: Leishmania major; experiment: Antiparasitic activity was estimated by ability to inhibit the in vitro growth of Leishmania major measured by the decreased uptake of [3H]thymidine at 5 ug/mL; type: functional
# [9] = Evaluated for the PHA (phytohemagglutininin A) induced proliferation of human peripheral lymphocytes at a dose of 100 ug/ml; type: functional
# [10] = Evaluated for the PHA (phytohemagglutininin A) induced proliferation of human peripheral lymphocytes at a dose of 5 ug/ml; type: functional
# [11] = test system: Leishmania major; experiment: Antiparasitic activity was estimated by ability to inhibit the in vitro growth of Leishmania major measured by the decreased uptake of [3H]thymidine at 100 ug/mL; type: functional
# [12] = test system: Leishmania donovani; experiment: Inhibition of [3H]thymidine uptake in amastigotes of Leishmania donovani in infected human peripheral blood monocyte derived macrophages at a dose of 5 ug/ml; type: functional
# [13] = Evaluated for the PHA (phytohemagglutininin A) induced proliferation of human peripheral lymphocytes at a dose of 50 ug/ml; type: functional
# [14] = test system: Leishmania major; experiment: Antiparasitic activity was estimated by ability to inhibit the in vitro growth of Leishmania major measured by the decreased uptake of [3H]thymidine at 50 ug/mL; type: functional
# [15] = test system: Leishmania major; experiment: Antiparasitic activity was estimated by ability to inhibit the in vitro growth of Leishmania major measured by the decreased uptake of [3H]-thymidine at 20 ug/mL; type: functional
# [16] = test system: Leishmania major; experiment: Antiparasitic activity was estimated by ability to inhibit the in vitro growth of Leishmania major measured by the decreased uptake of [3H]thymidine at 1 ug/mL; type: functional
# [17] = Evaluated for the PHA (phytohemagglutininin A) induced proliferation of human peripheral lymphocytes at a dose of 1 ug/ml; type: functional
# [18] = Evaluated for the PHA (phytohemagglutininin A) induced proliferation of human peripheral lymphocytes at a dose of 20 ug/ml; type: functional
# [19] = test system: Leishmania major; experiment: Compound was tested for its ability to inhibit the growth of Leishmania major at a dose of 1 ug/ml; type: functional, organism-based
# [20] = test system: Leishmania major; experiment: Compound was tested for its ability to inhibit the growth of Leishmania major at a dose of 100 ug/ml; type: functional, organism-based
# [21] = test system: Leishmania major; experiment: Compound was tested for its ability to inhibit the growth of Leishmania major at a dose of 10 ug/ml; type: functional, organism-based
Compound,inhibition at 10 µg/mL [4] [%],inhibition at 10 µg/mL [6] [%],inhibition at 5 µg/mL [8] [%],inhibition at 5 µg/mL [10] [%],inhibition at 20 µg/mL [15] [%],inhibition at 1 µg/mL [16] [%],inhibition at 1 µg/mL [17] [%],inhibition at 20 µg/mL [18] [%],further results
COc1cc(O)ccc1/C=C/C(=O)c1ccc(O)cc1 [ECHINATIN],9.2,30,16.4,7.8,–,–,–,–,inhibition at 0.5 µg/mL [1]: 57%; inhibition at 1 µg/mL [2]: 62%; inhibition at 10 µg/mL [3]: 94%; inhibition at 25 µg/mL [5]: 10.4%; inhibition at 25 µg/mL [7]: 50.3%; inhibition at 100 µg/mL [9]: 26.4%; inhibition at 100 µg/mL [11]: 86.8%; inhibition at 5 µg/mL [12]: 92%; inhibition at 50 µg/mL [13]: 18%; inhibition at 50 µg/mL [14]: 69.3%
C=CC(C)(C)c1cc(/C=C/C(=O)c2ccc(O)cc2)c(OC)cc1O [LICOAGROCHACONE A],39.7,91.9,63.9,20.8,96,3.6,4.7,65.3,–
COc1c(/C=C/C(=O)c2ccc(O)cc2)ccc(O)c1CC=C(C)C,30.4,51.5,20.7,14.8,93.8,3.9,5.5,73.2,–
Pentostam,–,–,–,–,–,–,–,–,inhibition [19]: 18%; inhibition [20]: 95%; inhibition [21]: 35%
